From ChEMBL document CHEMBL5260814, “Design strategies in the prodrugs of HIV-1 protease inhibitors to improve the pharmaceutical properties” (Eur J Med Chem, 2017)
Values after ≈ are worked out from the molar mass of the structure shown. Blank lines part the entries; values can stand above or below the compound they belong to.

Tests used:
[1] = Cmax in rat in presence of Ritonavir; type: ADME; conditions: in vivo, read-out: Cmax
[2] = AUC in rat in presence of Ritonavir; type: ADME; design: concentration or dose not given beside the values; conditions: in vivo, read-out: AUC
P-glycoprotein = experiment: Efflux ratio of apparent permeability across basal to apical membrane over apical to basal membrane in human Caco-2 cells in absence of P-glycoprotein; type: ADME, cell-based
[3] = Metabolic stability in rat liver microsome assessed as half life […]; type: ADME; conditions: liver microsomes
[4] = Water solubility of compound; type: physicochemical
[5] = Stability of compound in PBS at pH 4.9 assessed as half life; type: physicochemical
[6] = Stability of compound in PBS at pH 5.5 assessed as half life; type: physicochemical
[7] = Stability of compound in PBS at pH 7.4 assessed as half life; type: physicochemical
[8] = Solubility of compound; type: physicochemical
[9] = Stability of compound in PBS buffer at pH 7.3 assessed as half life; type: physicochemical

SMILES: Cc1nc(COc2ccc(C[C@H](NC(=O)O[C@H]3CO[C@H]4OCC[C@H]43)[C@@H](CN(CC(C)C)S(=O)(=O)c3ccc4c(c3)OCO4)OC(=O)CO[n+]3ccccc3)cc2)cs1
Cmax [1]: 272 ng/mL
AUC [2]: > 7700 ng·h/mL

SMILES: CC(C)[C@H](N)C(=O)N[C@@H](C(=O)O[C@H](CN1C[C@H]2CCCC[C@H]2C[C@H]1C(=O)NC(C)(C)C)[C@H](Cc1ccccc1)NC(=O)[C@H](CC(N)=O)NC(=O)c1ccc2ccccc2n1)C(C)C
efflux ratio (P-glycoprotein): 1.2
half-life [3]: 178 min

SMILES: Cc1ccccc1OCC(=O)O[C@H](C(=O)N1CSC[C@H]1C(=O)NC(C)(C)C)[C@@H](N)Cc1ccccc1.Cl
solubility [4]: 15 mg/mL
half-life [5]: 19.6 min
half-life [6]: 2.4 min
half-life [7]: < 1 min

SMILES: Cc1nc(COc2ccc(C[C@H](NC(=O)O[C@H]3CO[C@H]4OCC[C@H]43)[C@@H](CN(CC(C)C)S(=O)(=O)c3ccc4c(c3)OCO4)OC(=O)CONC(=N)N)cc2)cs1
Cmax [1]: 460 ng/mL
AUC [2]: > 5000 ng·h/mL

SMILES: Cc1cccc(C)c1OCC(=O)N[C@@H](Cc1ccccc1)[C@H](OC(=O)CCCC(=O)NCCN1CCOCC1)C(=O)N1CSC(C)(C)[C@H]1C(=O)NC(C)(C)C
solubility [8]: 57.1 mg/mL (≈ 73 mM)

SMILES: CC(C)(C)NC(=O)[C@H]1C[C@@H]2CCCC[C@@H]2CN1C[C@@H](OC(=O)CCCCO[C@H]1O[C@H](CO)[C@@H](O)[C@H](O)[C@@H]1O)[C@H](Cc1ccccc1)NC(=O)[C@H](CC(N)=O)NC(=O)c1ccc2ccccc2n1
half-life [9]: 50 h

SMILES: Cc1cccc(CN(C)CCOCC(=O)O[C@H](CN(CC(C)C)S(=O)(=O)c2ccc3c(c2)OCO3)[C@H](Cc2ccc(OCc3csc(C)n3)cc2)NC(=O)O[C@H]2CO[C@H]3OCC[C@H]32)n1
Cmax [1]: 401 ng/mL
AUC [2]: 4020 ng·h/mL

SMILES: CNCC(=O)OCC(=O)O[C@H](CN(CC(C)C)S(=O)(=O)c1ccc2c(c1)OCO2)[C@H](Cc1ccc(OCc2csc(C)n2)cc1)NC(=O)O[C@H]1CO[C@H]2OCC[C@H]21
Cmax [1]: 356 ng/mL
AUC [2]: 5600 ng·h/mL

SMILES: Cc1nc(COc2ccc(C[C@H](NC(=O)O[C@H]3CO[C@H]4OCC[C@H]43)[C@@H](CN(CC(C)C)S(=O)(=O)c3ccc4c(c3)OCO4)OC(=O)COCC(=O)NCc3ccccn3)cc2)cs1
Cmax [1]: 640 ng/mL
AUC [2]: 6810 ng·h/mL

SMILES: Cc1nc(COc2ccc(C[C@H](NC(=O)O[C@H]3CO[C@H]4OCC[C@H]43)[C@@H](CN(CC(C)C)S(=O)(=O)c3ccc4c(c3)OCO4)OC(=O)COCCn3ccnc3)cc2)cs1
Cmax [1]: 322 ng/mL
AUC [2]: > 5000 ng·h/mL

SMILES: CC(C)(C)NC(=O)[C@@H]1CN(Cc2cccnc2)CCN1C[C@@H](O)C[C@@H](Cc1ccccc1)C(=O)N[C@H]1c2ccccc2C[C@H]1OC(=O)CCCCO[C@H]1O[C@H](CO)[C@@H](O)[C@H](O)[C@@H]1O
half-life [9]: 50 h

SMILES: Cc1nc(COc2ccc(C[C@H](NC(=O)O[C@H]3CO[C@H]4OCC[C@H]43)[C@@H](CN(CC(C)C)S(=O)(=O)c3ccc4c(c3)OCO4)OC(=O)COCCOCC(=O)N(C)CCc3ccccn3)cc2)cs1
Cmax [1]: 513 ng/mL
AUC [2]: 4220 ng·h/mL

SMILES: Cc1c(OC(=O)CCCCO[C@H]2O[C@H](CO)[C@@H](O)[C@H](O)[C@@H]2O)cccc1C(=O)N[C@@H](CSc1ccccc1)[C@@H](CN1C[C@H]2CCCC[C@H]2C[C@H]1C(=O)NC(C)(C)C)OC(=O)CCCCO[C@H]1O[C@H](CO)[C@@H](O)[C@H](O)[C@@H]1O
half-life [9]: 50 h

SMILES: Cc1c(OC(=O)CCCCO[C@H]2O[C@H](CO)[C@@H](O)[C@H](O)[C@@H]2O)cccc1C(=O)N[C@@H](CSc1ccccc1)[C@H](O)CN1C[C@H]2CCCC[C@H]2C[C@H]1C(=O)NC(C)(C)C
half-life [9]: 50 h

SMILES: CC(C)[C@@H](N)C(=O)N[C@@H](C(=O)O[C@H](CN1C[C@H]2CCCC[C@H]2C[C@H]1C(=O)NC(C)(C)C)[C@H](Cc1ccccc1)NC(=O)[C@H](CC(N)=O)NC(=O)c1ccc2ccccc2n1)C(C)C
half-life [3]: 296 min

Further lines, results first:

solubility [4]: 0.047 mg/mL (≈ 0.0891 mM)
SMILES: CC(C)(C)NC(=O)[C@H]1N(C(=O)[C@@H](O)[C@H](Cc2ccccc2)NC(=O)COc2ccccc2)CSC1(C)C

solubility [4]: 14 mg/mL
half-life [5]: 20.8 min
half-life [6]: 2.6 min
half-life [7]: < 1 min
SMILES: Cc1ccccc1OCC(=O)O[C@H](C(=O)N1CSC(C)(C)[C@H]1C(=O)NC(C)(C)C)[C@@H](N)Cc1ccccc1.Cl

half-life [5]: 24.8 min
half-life [6]: 4.5 min
half-life [7]: < 1 min
SMILES: Cc1cccc(C)c1OCC(=O)O[C@H](C(=O)N1CSC(C)(C)[C@H]1C(=O)NC(C)(C)C)[C@@H](N)Cc1ccccc1.Cl

solubility [4]: 0.023 mg/mL (≈ 0.0436 mM)
SMILES: Cc1cccc(C)c1OCC(=O)N[C@@H](Cc1ccccc1)[C@H](O)C(=O)N1CSC[C@H]1C(=O)NC(C)(C)C

solubility [8]: 47.8 mg/mL (≈ 62.4 mM)
SMILES: Cc1cccc(C)c1OCC(=O)N[C@@H](Cc1ccccc1)[C@H](OC(=O)CCC(=O)NCCN1CCCCC1)C(=O)N1CSC(C)(C)[C@H]1C(=O)NC(C)(C)C

solubility [4]: 0.018 mg/mL (≈ 0.0332 mM)
SMILES: Cc1ccccc1OCC(=O)N[C@@H](Cc1ccccc1)[C@H](O)C(=O)N1CSC(C)(C)[C@H]1C(=O)NC(C)(C)C

solubility [8]: 73.6 mg/mL (≈ 94.1 mM)
SMILES: Cc1cccc(C)c1OCC(=O)N[C@@H](Cc1ccccc1)[C@H](OC(=O)CCC(=O)NCCCN1CCOCC1)C(=O)N1CSC(C)(C)[C@H]1C(=O)NC(C)(C)C
